From patent US10206907B2, “Compounds useful for the treatment of degenerative and inflammatory diseases” (GALAPAGOS NV, priority 2008, dated 2019)

Target: Recombinant human JAK1 catalytic domain (Homo sapiens (Human), UniProt P23458)
Assay: JAK1 inhibition assay
Type: biochemical
Conditions: semi-quantitative score
Procedure: Plates were washed 6 times with 300 μL per well of a 75 mM phosphoric acid solution and the bottom of the plates was sealed. 40 μL/well of Microscint-20 was added, the top of the plates was sealed and readout was performed using the Topcount (Perkin Elmer). Kinase activity was calculated by subtracting counts per minute (cpm) obtained in the presence of a positive control inhibitor (10 μM staurosporine) from cpm obtained in the presence of vehicle. The ability of a test compound to inhibit this activity was determined as: Percentage inhibition=((cpm determined for sample with test compound present−cpm determined for sample with positive control inhibitor) divided by (cpm determined in the presence of vehicle−cpm determined for sample with positive control inhibitor))*100%.
Dose dilution series were prepared for the compounds enabling the testing of dose-response effects in the JAK1 assay and the calculation of the IC50 for each compound.

Chain of Recombinant human JAK1 catalytic domain (P23458 850-1154): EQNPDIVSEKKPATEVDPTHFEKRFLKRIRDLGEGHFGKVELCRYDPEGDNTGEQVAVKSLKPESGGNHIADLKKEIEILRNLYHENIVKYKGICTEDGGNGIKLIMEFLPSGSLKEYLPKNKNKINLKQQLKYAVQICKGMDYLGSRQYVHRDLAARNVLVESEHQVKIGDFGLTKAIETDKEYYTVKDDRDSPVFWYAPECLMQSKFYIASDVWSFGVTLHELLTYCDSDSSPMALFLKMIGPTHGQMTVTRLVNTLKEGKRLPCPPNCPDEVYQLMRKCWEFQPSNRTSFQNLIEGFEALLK

Row | Structure (SMILES) | IC50 [nM]
1 | O=C(Nc1nc2cccc(-c3cccc(CN4CCOCC4)c3)n2n1)C1CC1 [Compound 2, N-(5-(3-(morpholinomethyl)phenyl)-[1,2,4]triazolo[1,5-a]pyridin-2-yl)cyclopropanecarboxamide] | 101 to 500
2 | O=C(Nc1nc2cccc(-c3cnc(N4CCCC4)nc3)n2n1)C1CC1 [Compound 4, N-(5-(2-(pyrrolidin-1-yl)pyrimidin-5-yl)-[1,2,4]triazolo[1,5-a]pyridin-2-yl)cyclopropanecarboxamide] | 501 to 1000
3 | CN1CCN(c2ccc(-c3cccc4nc(NC(=O)C5CC5)nn34)cn2)CC1 [Compound 5, N-(5-(6-(4-methylpiperazin-1-yl)pyridin-3-yl)-[1,2,4]triazolo[1,5-a]pyridin-2-yl)cyclopropanecarboxamide] | > 1000
4 | O=C(Nc1nc2cccc(-c3ccc(N4CCOCC4)nc3)n2n1)C1CC1 [Compound 6, N-(5-(6-morpholinopyridin-3-yl)-[1,2,4]triazolo[1,5-a]pyridin-2-yl)cyclopropanecarboxamide] | > 1000
5 | O=C(Nc1nc2cccc(-c3cnc(N4CCOCC4)nc3)n2n1)C1CC1 [Compound 8, N-(5-(2-morpholinopyrimidin-5-yl)-[1,2,4]triazolo[1,5-a]pyridin-2-yl)cyclopropanecarboxamide] | > 1000
6 | O=C(Nc1nc2cccc(-c3cnc(N4CCCCC4)nc3)n2n1)C1CC1 [Compound 9, N-(5-(2-(piperidin-1-yl)pyrimidin-5-yl)-[1,2,4]triazolo[1,5-a]pyridin-2-yl)cyclopropanecarboxamide] | > 1000
7 | O=C(Nc1ccc(-c2cccc3nc(NC(=O)C4CC4)nn23)cc1)c1ccccc1F [Compound 34, N-(4-(2-(cyclopropanecarboxamido)-[1,2,4]triazolo[1,5-a]pyridin-5-yl)phenyl)-2-fluorobenzamide] | 101 to 500
8 | O=C(Nc1ccc(-c2cccc3nc(NC(=O)C4CC4)nn23)cc1)c1cnccn1 [Compound 35, N-(4-(2-(cyclopropanecarboxamido)-[1,2,4]triazolo[1,5-a]pyridin-5-yl)phenyl)pyrazine-2-carboxamide] | 101 to 500
9 | O=C(Nc1nc2cccc(-c3ccc(OCc4cccc(OC(F)(F)F)c4)cc3)n2n1)C1CC1 [Compound 38, N-(5-(4-(3-(trifluoromethoxy)benzyloxy)phenyl)-[1,2,4]triazolo[1,5-a]pyridin-2-yl)cyclopropanecarboxamide] | 101 to 500
10 | O=C(Nc1ccc(-c2cccc3nc(NC(=O)C4CC4)nn23)cn1)c1ccccc1 [Compound 44, N-(5-(2-(cyclopropanecarboxamido)-[1,2,4]triazolo[1,5-a]pyridin-5-yl)pyridin-2-yl)benzamide] | 501 to 1000
11 | O=C(Nc1ccc(-c2cccc3nc(NC(=O)C4CC4)nn23)cc1)C1CCCCC1 [Compound 45, N-(4-(2-(cyclopropanecarboxamido)-[1,2,4]triazo[1,5-a]pyridin-5-yl)phenyl)cyclohexanecarbox-amide] | 101 to 500
12 | O=C(Nc1nc2cccc(-c3ccc(-c4ccccc4)nc3)n2n1)C1CC1 [Compound 47, N-(5-(6-phenylpyridin-3-yl)-[1,2,4]triazolo[1,5-a]pyridin-2-yl)cyclopropanecarboxamide] | 101 to 500
13 | COc1cccc(C(=O)Nc2ccc(-c3cccc4nc(NC(=O)C5CC5)nn34)cc2)c1 [Compound 53, N-(4-(2-(cyclopropanecarboxamido)-[1,2,4]triazolo[1,5-a]pyridin-5-yl)phenyl)-3-methoxybenzamide] | 101 to 500
14 | O=C(Nc1ccc(-c2cccc3nc(NC(=O)C4CC4)nn23)cc1)c1ccccn1 [Compound 55, N-(4-(2-(cyclopropanecarboxamido)-[1,2,4]triazolo[1,5-a]pyridin-5-yl)phenyl)picolinamide] | 101 to 500
15 | O=C(Nc1nc2cccc(-c3ccc(N4CCNCC4)nc3)n2n1)C1CC1 [Compound 61, N-(5-(6-(piperazin-1-yl)pyridin-3-yl)-[1,2,4]triazolo[1,5-a]pyridin-2-yl)cyclopropanecarboxamide] | > 1000
16 | Cc1nc(COc2ccc(-c3cccc4nc(NC(=O)C5CC5)nn34)cc2)c(C)o1 [Compound 63, N-(5-(4-((2,5-dimethyloxazol-4-yl)methoxy)phenyl)-[1,2,4]triazolo[1,5-a]pyridin-2-yl)cyclopropanecarboxamide] | 101 to 500
17 | Cc1nn(C)cc1S(=O)(=O)Nc1ccc(-c2cccc3nc(NC(=O)C4CC4)nn23)cc1 [Compound 65, N-(5-(4-(1,3-dimethyl-1H-pyrazole-4-sulfonamido)phenyl)-[1,2,4]triazolo[1,5-a]pyridin-2-yl)cyclopropanecarboxamide] | 101 to 500
18 | O=C(Nc1nc2cccc(-c3ccc(-c4cn[nH]c4)cc3)n2n1)C1CC1 [Compound 67, N-(5-(4-(1H-pyrazol-4-yl)phenyl)-[1,2,4]triazolo[1,5-a]pyridin-2-yl)cyclopropanecarboxamide] | 101 to 500

Row | Structure (SMILES) | IC50 [nM]
19 | O=C(Nc1nc2cccc(-c3ccc(-c4cccnc4)nc3)n2n1)C1CC1 [Compound 68, N-(5-(2,3′-bipyridin-5-yl)-[1,2,4]triazolo[1,5-a]pyridin-2-yl)cyclopropanecarboxamide] | 101 to 500
20 | CCCc1cc(C(=O)Nc2ccc(-c3cccc4nc(NC(=O)C5CC5)nn34)cc2)n(C)n1 [Compound 69] | 101 to 500
21 | O=C(Nc1ccc(-c2cccc3nc(NC(=O)C4CC4)nn23)cc1)C1CCC1 [Compound 70, N-(4-(2-(cyclopropanecarboxamido)-[1,2,4]triazolo[1,5-a]pyridin-5-yl)phenyl)cyclobutanecarbox-amide] | 101 to 500
22 | CCOCC1CCN(C(=O)c2ccc(-c3cccc4nc(NC(=O)C5CC5)nn34)cc2)CC1 [Compound 73] | 101 to 500
23 | O=C(NCCN1CCCC1)c1ccc(-c2cccc3nc(NC(=O)C4CC4)nn23)cc1 [Compound 80, 4-(2-(cyclopropanecarboxamido)-[1,2,4]lriazoIo[1,5-a]pyridin-5-yl)-N-(2-(pyrrolidin-l-yl)ethyl)benzamide] | 101 to 500
24 | O=C(NCCCN1CCOCC1)c1ccc(-c2cccc3nc(NC(=O)C4CC4)nn23)cc1 [Compound 81, 4-(2-(cyclopropanecarboxamido)-[1,2,4]triazolo[1,5-a]pyridin-5-yl)-N-(3-morpholinopropyl)benzamide] | 101 to 500
25 | O=C(Nc1nc2cccc(-c3ccc(C(=O)N4CCC(c5ccc(Cl)cc5)CC4)cc3)n2n1)C1CC1 [Compound 86] | < 100
26 | O=C(Nc1nc2cccc(-c3ccc(NCCC4CCOCC4)nc3)n2n1)C1CC1 [Compound 93, N-(5-(6-(2-(tetrahydro-2H-pyran-4-yl)ethylamino)pyridin-3-yl)-[1,2,4]triazolo[1,5-a]pyridin-2-yl)cyclopropanecarboxamide] | 101 to 500
27 | O=C(Nc1nc2cccc(-c3ccc(C(=O)N4CCC(CCN5CCOCC5)CC4)cc3)n2n1)C1CC1 [Compound 94, N-(5-(4-(4-(2-morpholinoethyl)piperidine-1-carbonyl)phenyl)-[l,2,4]triazolo[1,5-a]pyridin-2-yl)cyclopropanecarboxamide] | 101 to 500
28 | O=C(Nc1nc2cccc(-c3ccnc(N4CCC(CCN5CCOCC5)CC4)c3)n2n1)C1CC1 [Compound 95, N-(5-(2-(4-(2-morpholinoethyl)piperidin-1-yl)pyridin-4-yl)-[1,2,4]triazolo[1,5-a]pyridin-2-yl)cyclopropanecarboxamide] | > 1000
29 | O=C(Nc1nc2cccc(-c3ccc(C(=O)N4CCC(N5CCOCC5)CC4)cc3)n2n1)C1CC1 [Compound 101, N-(5-(4-(4-morpholinopiperidine-1-carbonyl)phenyl)-[1,2,4]triazolo[1,5-a]pyridin-2-yl)cyclopropanecarboxamide] | 101 to 500
30 | CC(C)(CN1CCOCC1)NC(=O)c1ccc(-c2cccc3nc(NC(=O)C4CC4)nn23)cc1 [Compound 102, 4-(2-(cyclopropanecarboxamido)-[1,2,4]triazolo[1,5-a]pyridin-5-yl)-N-(2-methyl-1-morpholinopropan-2-yl)benzamide] | 101 to 500
31 | CN(Cc1ccccc1)C1CCN(C(=O)c2ccc(-c3cccc4nc(NC(=O)C5CC5)nn34)cc2)CC1 [Compound 103, N-(5-(4-(4-(benzyl(methyl)amino)piperidine-1-carbonyl)phenyl)-[1,2,4]triazolo[1,5-a]pyridin-2-yl)cyclopropanecarboxamide] | > 1000
32 | COc1ccc(CCN(C)C(=O)c2ccc(-c3cccc4nc(NC(=O)C5CC5)nn34)cc2)cc1OC [Compound 105, 4-(2-(cyclopropanecarboxamido)-[1,2,4]triazolo[1,5-a]pyridin-5-yl)-N-(3,4-dimethoxyphenethyl)-N-methylbenzamide] | 101 to 500
33 | O=C(Nc1nc2cccc(-c3ccc(C(=O)N4CCC(Oc5cccnc5)CC4)cc3)n2n1)C1CC1 [Compound 110, N-(5-(4-(4-(pyridin-3-yloxy)piperidine-1-carbonyl)phenyl)-[1,2,4]triazolo[1,5-a]pyridin-2-yl)cyclopropanecarboxamide] | 101 to 500
34 | O=C(Nc1nc2cccc(-c3ccnc(N4CCC(CCc5ccccc5)CC4)c3)n2n1)C1CC1 [Compound 112, N-(5-(2-(4-phenethylpiperidin-1-yl)pyridin-4-yl)-[1,2,4]triazolo[1,5-a]pyridin-2-yl)cyclopropanecarboxamide] | > 1000
35 | O=C(Nc1nc2cccc(-c3ccc(OCC(=O)N4CCCCC4)cc3)n2n1)C1CC1 [Compound 117, N-(5-(4-(2-oxo-2-(piperidin-1-yl)ethoxy)phenyl)-[1,2,4]triazolo[1,5-a]pyridin-2-yl)cyclopropanecarboxamide] | > 1000
36 | CN1CCN(Cc2ccc(COc3ccc(-c4cccc5nc(NC(=O)C6CC6)nn45)cc3)cc2)CC1 [Compound 126, N-(5-(4-(4-((4-methylpiperazin-1-yl)methyl)benzyloxy)phenyl)-[1,2,4]triazolo[1,5-a]pyridin-2-yl)cyclopropanecarboxamide] | 101 to 500
